# Measured values: patent US20220031596A1, “ANTI-AGING AGENT AND ANTI-AGING METHOD” (priority 2018, published 2022)
# What was measured:
# [1] = system: parathyroid hormone concentration in the plasma; assay: Evaluation of parathyroid hormone secretion promoting effect (plasma parathyroid hormone, 24-week oral ingestion); type: in vivo, human; conditions: for parathyroid hormone concentration in the plasma, 0 weeks (before ingestion): baseline; for parathyroid hormone concentration in the plasma, 0 weeks (before ingestion) / parathyroid hormone concentration in the plasma, 24 weeks (after ingestion) / parathyroid hormone concentration in the plasma, Change rate (24 weeks - 0 weeks): mean±SD
# Method: In order to confirm a change in the parathyroid hormone quantity before and after ingestion of the nicotinamide mononucleotide, a test was conducted on healthy males and females aged 50 to 70 years.
# As a sample of Working Example 6, a capsule formulation containing the nicotinamide mononucleotide and starch (100 mg (low dose) and 200 mg (high dose) of the nicotinamide mononucleotide in 4 capsules) (manufactured by SHINKOWA PHARMACEUTICAL Co., Ltd.) was used.
# (§1) Each group consisting of five healthy males and females aged 50 to 70 years in an unbiased age group ingested the above low dose capsule formulation once a day by 4 capsules for 24 weeks (total 10 subjects, a low dose group: 100 mg/daily ingestion). On the other hand, each group consisting of five healthy males and females aged 50 to 70 years in the unbiased age group ingested the above high dose capsule formulation once a day by 4 capsules for 24 weeks (total 10 subjects, a high dose group: 200 mg/daily ingestion). In order to conduct appropriate evaluations, those who had been regularly using medical products for chronic diseases, those who had been consuming healthy foods that may affect clinical research, and those who were currently participating in other clinical researches or clinical trials or had participated in other clinical researches or clinical trials within the last three months were excluded from the subject for the evaluation. The capsule formulations were ingested at 10 am (between meals and fasting state) together with water or lukewarm water (oral administration).
# Measurement of the parathyroid hormone quantity in the plasma was conducted by requesting the measurement to an external public organization according to a usual method. FIGS. 12a to 12c indicate transitions of the parathyroid hormone concentration (pg/ml) in the plasma for 24 weeks. FIG. 12a represents the transitions of the whole subjects; FIG. 12b represents the transitions of the male subjects; FIG. 12c represents the transitions of the female subjects. Further, FIGS. 13a to 13c indicate change rates (%) of the blood parathyroid hormone concentration up to 24 weeks when the nicotinamide mononucleotide was orally administered to the subjects for 24 weeks. FIG. 13a represents the change rates of the whole subjects; FIG. 13b represents the change rates of the male subjects; FIG. 13c represents the change rates of the female subjects. Further, Table 6 indicates the numerical values of the parathyroid hormone concentration (pg/ml) in the plasma before the ingestion of the nicotinamide mononucleotide (0 weeks) and after the ingestion of the nicotinamide mononucleotide (24 weeks). Note that the numerical values represent mean values±standard deviation.
# [2] = system: thyroid-stimulating hormone concentration in the plasma; assay: Evaluation of thyroid-stimulating hormone secretion promoting effect (plasma TSH, 24-week oral ingestion); type: in vivo, human; conditions: for thyroid-stimulating hormone concentration in the plasma, 0 weeks (before ingestion) / thyroid-stimulating hormone concentration in the plasma, 24 weeks (after ingestion) / thyroid-stimulating hormone concentration in the plasma, Change rate (24 weeks - 0 weeks): High Dose Group (200 mg/daily, oral), mean±SD; for thyroid-stimulating hormone concentration in the plasma, 0 weeks (before ingestion): baseline
# Method: In order to confirm a change in the thyroid-stimulating hormone quantity before and after ingestion of the nicotinamide mononucleotide, a test was conducted on healthy males and females aged 50 to 70 years.
# As a sample of Working Example 4, a capsule formulation containing the nicotinamide mononucleotide and starch (200 mg of the nicotinamide mononucleotide in 4 capsules) (manufactured by SHINKOWA PHARMACEUTICAL Co., Ltd.) was used.
# as §1, with “above” for “above low dose”, “subjects,” for “subjects, a low dose group: 100 mg/daily ingestion). On the other hand, each group consisting of five healthy males and females aged 50 to 70 years in the unbiased age group ingested the above high dose capsule formulation once a day by 4 capsules for 24 weeks (total 10 subjects, a high dose group:”
# Measurement of the thyroid-stimulating hormone quantity in the plasma was conducted by requesting the measurement to an external public organization according to a usual method. FIGS. 8a to 8c indicate transitions of the thyroid-stimulating hormone concentration (μU/ml) in the plasma for 24 weeks. FIG. 8a represents the transitions of the whole subjects; FIG. 8b represents the transitions of the male subjects; FIG. 8c represents the transitions of the female subjects. Further, FIGS. 9a to 9c indicate change rates (%) of the blood thyroid-stimulating hormone concentration up to 24 weeks when the nicotinamide mononucleotide was orally administered to the subjects for 24 weeks. FIG. 9a represents the change rates of the whole subjects; FIG. 9b represents the change rates of the male subjects; FIG. 9c represents the change rates of the female subjects. Further, Table 4 indicates the numerical values of the thyroid-stimulating hormone concentration (μU/ml) in the plasma before the ingestion of the nicotinamide mononucleotide (0 weeks) and after the ingestion of the nicotinamide mononucleotide (24 weeks). Note that the numerical values represent mean values±standard deviation.
# [3] = Female, High Dose Group (200 mg/daily, oral)
# [4] = Female, Low Dose Group (100 mg/daily, oral)
# [5] = Male, High Dose Group (200 mg/daily, oral)
# [6] = Male, Low Dose Group (100 mg/daily, oral)
# [7] = Whole Subjects, High Dose Group (200 mg/daily, oral)
# [8] = Whole Subjects, Low Dose Group (100 mg/daily, oral)
smiles,measurement,setting,value
NC(=O)c1ccc[n+]([C@@H]2O[C@H](COP(=O)([O-])O)[C@@H](O)[C@H]2O)c1 [nicotinamide mononucleotide],"parathyroid hormone concentration in the plasma, 0 weeks (before ingestion)",[1]; [3],384 ± 88 pg/mL
same,"parathyroid hormone concentration in the plasma, 24 weeks (after ingestion)",[1]; [3],448 ± 114 pg/mL
same,"parathyroid hormone concentration in the plasma, Change rate (24 weeks - 0 weeks)",[1]; [3],64 ± 65 pg/mL
same,"parathyroid hormone concentration in the plasma, 0 weeks (before ingestion)",[1]; [4],328 ± 45 pg/mL
same,"parathyroid hormone concentration in the plasma, 24 weeks (after ingestion)",[1]; [4],394 ± 63 pg/mL
same,"parathyroid hormone concentration in the plasma, Change rate (24 weeks - 0 weeks)",[1]; [4],66 ± 34 pg/mL
same,"parathyroid hormone concentration in the plasma, 0 weeks (before ingestion)",[1]; [5],410 ± 108 pg/mL
same,"parathyroid hormone concentration in the plasma, 24 weeks (after ingestion)",[1]; [5],438 ± 168 pg/mL
same,"parathyroid hormone concentration in the plasma, Change rate (24 weeks - 0 weeks)",[1]; [5],28 ± 77 pg/mL
same,"parathyroid hormone concentration in the plasma, 0 weeks (before ingestion)",[1]; [6],344 ± 69 pg/mL
same,"parathyroid hormone concentration in the plasma, 24 weeks (after ingestion)",[1]; [6],386 ± 108 pg/mL
same,"parathyroid hormone concentration in the plasma, Change rate (24 weeks - 0 weeks)",[1]; [6],42 ± 73 pg/mL
same,"parathyroid hormone concentration in the plasma, 0 weeks (before ingestion)",[1]; [7],397 ± 94 pg/mL
same,"parathyroid hormone concentration in the plasma, 24 weeks (after ingestion)",[1]; [7],443 ± 135 pg/mL
same,"parathyroid hormone concentration in the plasma, Change rate (24 weeks - 0 weeks)",[1]; [7],46 ± 70 pg/mL
same,"parathyroid hormone concentration in the plasma, 0 weeks (before ingestion)",[1]; [8],336 ± 56 pg/mL
same,"parathyroid hormone concentration in the plasma, 24 weeks (after ingestion)",[1]; [8],390 ± 84 pg/mL
same,"parathyroid hormone concentration in the plasma, Change rate (24 weeks - 0 weeks)",[1]; [8],54 ± 55 pg/mL
same,"parathyroid hormone concentrations in the plasma, effect of ingestion (in words)","[1]; oral, 100 or 200 mg/daily, 24 weeks, FIGS. 12a-12c, 13a-13c",increased
same,"thyroid-stimulating hormone concentration in the plasma, 0 weeks (before ingestion)",[2]; Female,2.56 ± 1.27 μU/ml
same,"thyroid-stimulating hormone concentration in the plasma, 24 weeks (after ingestion)",[2]; Female,2.61 ± 1.15 μU/ml
same,"thyroid-stimulating hormone concentration in the plasma, Change rate (24 weeks - 0 weeks)",[2]; Female,0.05 ± 0.98 μU/ml
same,"thyroid-stimulating hormone concentration in the plasma, 0 weeks (before ingestion)",[2]; Male,2.57 ± 1.65 μU/ml
same,"thyroid-stimulating hormone concentration in the plasma, 24 weeks (after ingestion)",[2]; Male,2.97 ± 1.52 μU/ml
same,"thyroid-stimulating hormone concentration in the plasma, Change rate (24 weeks - 0 weeks)",[2]; Male,0.40 ± 1.38 μU/ml
same,"thyroid-stimulating hormone concentration in the plasma, 0 weeks (before ingestion)",[2]; Whole Subjects,2.57 ± 1.39 μU/ml
same,"thyroid-stimulating hormone concentration in the plasma, 24 weeks (after ingestion)",[2]; Whole Subjects,2.79 ± 1.29 μU/ml
same,"thyroid-stimulating hormone concentration in the plasma, Change rate (24 weeks - 0 weeks)",[2]; Whole Subjects,0.23 ± 1.14 μU/ml
same,"thyroid-stimulating hormone concentrations in the plasma, effect of ingestion (in words)","[2]; oral, 200 mg/daily, 24 weeks, FIGS. 8a-8c, 9a-9c",increased
